US10369188B2, “Methods for preventing and treating pneumocystis infections” (Cidara Therapeutics, Inc., priority 2016, dated 2019)

Test system: Pneumocystis murina
Experiment: Pneumocystis murina prophylaxis study in dexamethasone-immunosuppressed mice (lung nuclei and asci counts)
Type: in vivo, C3H/HeN mice
Conditions: positive control group, 50/250 mg/kg/3x/wk, 6 weeks
Protocol: Briefly, the vehicle was prepared by first adding 1% Tween 20 to sterile phosphate-buffered saline (PBS) and then adding DMSO for a 10% DMSO in 1% Tween 20 in sterile PBS solution. […] For the 20 mg/kg/d dose, the drug was dissolved in vehicle to a concentration of 2.4 mg/ml. The mice then received 0.48 mg in a 200 μl dose. The drug was stored at −20° C. until initiation of dosage. The drug was prepared fresh for every two days of dosing.
C3H/HeN mice (Charles River) were infected with P. murina by intranasal inoculation of P. murina organisms at 2×106/50 μl from our liquid nitrogen repository. Prior to inoculation, the P. murina organisms were pre-incubated overnight in RPMI 1640 medium supplemented with calf serum and antibiotics to eliminate any bacterial contamination. […] Slides were made from the lung homogenates at different dilutions and stained with Diff-Quik to quantify the trophic forms and cresyl echt violet to quantify the asci.
Efficacy is based on the reduction of organism burden between the treatment groups and the negative control group as determined by microscopic evaluation. The nuclei and asci counts for each lung are log transformed and statistical analysis is determined by the analysis of variance (ANOVA); individual groups are compared by the Student-Newman-Keuls t test for multiple comparisons using GraphPad Prism. […]

trimethoprim/sulfamethoxazole [TMP/SMX]
asci observed by microscopic evaluation: no asci observed | nuclei seen by microscopic evaluation: no nuclei seen
